Data published in patent publication US8106055B2, “Substituted amide compounds” (Gruenenthal GmbH, priority 2007, dated 2012).

Experiments:
[1] = target: T1, serotonin (5-HT) reuptake (Rattus norvegicus, UniProt P31652); assay: Inhibition of serotonin (5HT) reuptake in synaptosomes from rat brain; type: biochemical; conditions: test concentration of 10 μM
T1 construct: synaptosomes are freshly isolated from areas of the rat brain; from tissue; host or cells: rat brain synaptosomes (P2 fraction)
Summary of the method: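 Freshly isolated rat brain synaptosomes (P2 fraction) used for 5-HT reuptake. Test compound at 10 μM, activity given as % inhibition.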

[2] = target: T2, bradykinin 1 receptor (B1R) of the rat (Rattus norvegicus, UniProt P97583); assay: Functional investigation on the rat bradykinin 1 receptor (B1R), Ca2+ FLIPR assay in CHO K1 rB1R cells; type: cell-based; conditions: B1R antagonism rat; test substance 10 μM; Ca2+ FLIPR, CHO K1 rB1R cells
T2 construct: expressed in transfected cells; host or cells: CHO K1 cells
T2 sequence (P97583 1-337): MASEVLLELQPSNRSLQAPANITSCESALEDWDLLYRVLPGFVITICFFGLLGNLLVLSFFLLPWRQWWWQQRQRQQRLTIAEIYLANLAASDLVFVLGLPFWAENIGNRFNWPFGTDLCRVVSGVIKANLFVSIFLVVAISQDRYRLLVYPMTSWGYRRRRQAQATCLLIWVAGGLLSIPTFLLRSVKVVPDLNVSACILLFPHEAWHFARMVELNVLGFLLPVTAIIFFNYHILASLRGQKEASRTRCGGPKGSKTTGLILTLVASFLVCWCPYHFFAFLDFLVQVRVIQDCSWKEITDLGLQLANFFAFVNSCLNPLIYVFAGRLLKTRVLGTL
Summary of the method: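 Stably transfected CHO K1 cells loaded with Fluo-4; FLIPR Ca2+ fluorescence peak (ex 488/em 540 nm). Compound added first (agonism vs Lys-Des-Arg9-bradykinin ≥50 nM human, Des-Arg9-bradykinin 10 μM rat), then after 10-20 min agonist at EC80; antagonism as % inhibition, IC50 from concentration series, n=2-3, N≥2.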

T1 sequence (P31652 whole entry): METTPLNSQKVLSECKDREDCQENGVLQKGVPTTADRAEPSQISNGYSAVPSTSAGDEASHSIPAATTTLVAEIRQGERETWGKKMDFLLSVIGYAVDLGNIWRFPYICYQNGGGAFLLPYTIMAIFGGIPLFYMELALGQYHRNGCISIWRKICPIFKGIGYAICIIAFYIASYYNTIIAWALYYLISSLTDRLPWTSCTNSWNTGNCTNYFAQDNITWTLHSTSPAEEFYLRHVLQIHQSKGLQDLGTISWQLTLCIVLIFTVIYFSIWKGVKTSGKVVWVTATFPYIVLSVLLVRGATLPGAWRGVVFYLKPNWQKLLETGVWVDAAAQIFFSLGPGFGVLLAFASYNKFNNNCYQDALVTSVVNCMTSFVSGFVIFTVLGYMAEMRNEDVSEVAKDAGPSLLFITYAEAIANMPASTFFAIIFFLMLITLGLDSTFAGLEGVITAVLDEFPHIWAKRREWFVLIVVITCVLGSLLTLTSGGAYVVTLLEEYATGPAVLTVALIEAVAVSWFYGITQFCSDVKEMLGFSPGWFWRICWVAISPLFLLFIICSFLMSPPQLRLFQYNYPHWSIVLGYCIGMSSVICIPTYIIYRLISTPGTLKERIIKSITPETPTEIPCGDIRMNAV

| SMILES | 5-HT (inhibition of reuptake of serotonin, % inhibition) [1] [%] | B1R Ant. r [10 μM] % Inhibition [2] [%] |
| --- | --- | --- |
| CN(C)C(c1ccccc1)C1CCC(CNC(=O)COCC2CCCN(S(=O)(=O)c3ccccc3)C2)CC1 (stereo not drawn) [Example 129, N((4((dimethylamino)(phenyl)methyl)cyclohexyl)methyl)-2-((1-(phenylsulfonyl)piperidin-3-yl)methoxy)acetamide] | 95 | 0 |
| Cc1ccc(S(=O)(=O)N(C)CCOCC(=O)NC2CCC(C(c3cccs3)N(C)C)CC2)cc1 (stereo not drawn) [Example 168, N-(4-((dimethylamino) (thiophen-2-yl)methyl)cyclohexyl)-2-(2-(N,4-dimethylphenylsulfamido)ethoxy)acetamide] | 85 | 16 |
| COc1cc(C)c(S(=O)(=O)N(CCOCC(=O)NCC2CCC(C(c3ccccc3)N(C)C)CC2)Cc2ccccc2)c(C)c1C (stereo not drawn) [Example 201] | 89 | 7 |
| CN(C)C(c1cccc(F)c1)C1CCC(CCNC(=O)COCC2CCCN2S(=O)(=O)c2ccc(Cl)c(Cl)c2)CC1 (stereo not drawn) [Example 202] | 98 | −15 |
| COc1ccc(S(=O)(=O)N2CCCCC2CCOCC(=O)NCC2CCC(C(c3cccc(F)c3)N(C)C)CC2)cc1 (stereo not drawn) [Example 203] | 93 | 55 |
| CN(C)C(c1cccc(F)c1)C1CCC(NC(=O)COC2CCN(S(=O)(=O)c3ccc(Cl)cc3)C2)CC1 (stereo not drawn) [Example 204] | 86 | −13 |
| CN(C)C(c1cccc(F)c1)C1CCC(NC(=O)COCCN(C)S(=O)(=O)c2ccc(F)cc2)CC1 (stereo not drawn) [Example 205] | 84 | 5 |
| COc1ccc(S(=O)(=O)N(C)CCOCC(=O)NC2CCC(C(c3cccs3)N(C)C)CC2)cc1OC (stereo not drawn) [Example 206] | 84 | 20 |
| CN(C)C(c1ccc(Cl)cc1)C1CCC(CNC(=O)COCCN(C)S(=O)(=O)c2c(Cl)cccc2Cl)CC1 (stereo not drawn) [Example 207] | 72 | 52 |
| CN(C)C(c1cccc(F)c1)C1CCC(NC(=O)COCCN(C)S(=O)(=O)c2c(Cl)cc(Cl)cc2Cl)CC1 (stereo not drawn) [Example 208] | 93 | 25 |
| CCN(CCOCC(=O)NCCC1CCC(C(c2cccc(F)c2)N(C)C)CC1)S(=O)(=O)c1c(C)cc(OC)c(C)c1C (stereo not drawn) [Example 209] | 94 | 60 |
| CN(C)C(c1cccc(F)c1)C1CCC(NC(=O)COCC2CCCN2S(=O)(=O)c2ccc(Cl)c(Cl)c2)CC1 (stereo not drawn) [Example 211] | 90 | 10 |
| COc1ccc(S(=O)(=O)N2CCCCC2CCOCC(=O)NC2CCC(C(c3ccc(F)cc3)N(C)C)CC2)cc1 (stereo not drawn) [Example 212] | 92 | 41 |
| COc1ccc(S(=O)(=O)N2CCCCC2CCOCC(=O)NCCC2CCC(C(c3cccc(F)c3)N(C)C)CC2)cc1 (stereo not drawn) [Example 213] | 98 | 49 |
| CN(C)C(c1cccs1)C1CCC(CCNC(=O)COC2CCCCC2N(C)S(=O)(=O)c2ccc(Cl)c(Cl)c2)CC1 (stereo not drawn) [Example 214] | 83 | 19 |
| CN(C)C(c1cccc(F)c1)C1CCC(CCNC(=O)COCCN(C)S(=O)(=O)c2ccc(OC(F)(F)F)cc2)CC1 (stereo not drawn) [Example 215] | 90 | 22 |
| Cc1ccc(S(=O)(=O)N2CCC(OCC(=O)NCCC3CCC(C(c4cccc(F)c4)N(C)C)CC3)C2)cc1 (stereo not drawn) [Example 216] | 87 | 12 |

| SMILES | 5-HT (inhibition of reuptake of serotonin, % inhibition) [1] [%] | B1R Ant. r [10 μM] % Inhibition [2] [%] |
| --- | --- | --- |
| CN(C)C(c1cccc(F)c1)C1CCC(NC(=O)COCCN(C)S(=O)(=O)c2ccc(Cl)cc2Cl)CC1 (stereo not drawn) [Example 217] | 85 | 47 |
| CN(C)C(c1cccc(F)c1)C1CCC(CCNC(=O)COCCN(C)S(=O)(=O)c2ccc(F)cc2)CC1 (stereo not drawn) [Example 218] | 101 | 28 |
| CN(C)C(c1ccccc1)C1CCC(CNC(=O)COC2CCN(S(=O)(=O)c3ccc(F)cc3)C2)CC1 (stereo not drawn) [Example 219] | 96 | 14 |
| CN(C)C(c1cccc(F)c1)C1CCC(CNC(=O)COCC2CCCN(S(=O)(=O)c3ccccc3)C2)CC1 (stereo not drawn) [Example 220] | 95 | 7 |
| COc1cc(C)c(S(=O)(=O)N2CCCC(OCC(=O)NCCC3CCC(C(c4cccc(F)c4)N(C)C)CC3)C2)c(C)c1C (stereo not drawn) [Example 221] | 95 | 17 |
| COc1cc(C)c(S(=O)(=O)N2CCN(CCOCC(=O)NC3CCC(C(c4ccc(F)cc4)N(C)C)CC3)CC2)c(C)c1C (stereo not drawn) [Example 222] | 92 | 10 |
| COc1cc(C)c(S(=O)(=O)N2CCN(CCOCC(=O)NCC3CCC(C(c4cccc(F)c4)N(C)C)CC3)CC2)c(C)c1C (stereo not drawn) [Example 223] | 96 | −5 |
| COc1ccc(S(=O)(=O)N2CCCC2COCC(=O)NCCC2CCC(C(c3cccc(F)c3)N(C)C)CC2)cc1 (stereo not drawn) [Example 224] | 97 | 47 |
| CN(C)C(c1cccc(F)c1)C1CCC(CNC(=O)COC2CCN(S(=O)(=O)c3ccc(Cl)cc3Cl)C2)CC1 (stereo not drawn) [Example 225] | 85 | 17 |
| Cc1ccc(S(=O)(=O)N(C)CCOCC(=O)NC2CCC(C(c3cccc(F)c3)N(C)C)CC2)cc1 (stereo not drawn) [Example 226] | 91 | 24 |
| Cc1ccc(S(=O)(=O)N(C)CCOCC(=O)NCC2CCC(C(c3cccc(F)c3)N(C)C)CC2)cc1 (stereo not drawn) [Example 227] | 86 | 12 |
| COc1cc(C)c(S(=O)(=O)N(C)CCOCC(=O)NC2CCC(C(c3cccc(F)c3)N(C)C)CC2)c(C)c1 (stereo not drawn) [Example 228] | 85 | 99 |
| CN(C)C(c1cccc(F)c1)C1CCC(CNC(=O)COCCN(C)S(=O)(=O)c2ccc(F)cc2)CC1 (stereo not drawn) [Example 229] | 89 | 8 |
| CN(C)C(c1cccs1)C1CCC(CCNC(=O)COC2CCN(S(=O)(=O)c3ccccc3)CC2)CC1 (stereo not drawn) [Example 230] | 94 | −1 |
| CCN(CCOCC(=O)NCC1CCC(C(c2ccccc2)N(C)C)CC1)S(=O)(=O)c1c(C)cc(OC)c(C)c1C (stereo not drawn) [Example 231] | 83 | 29 |
| COc1cc(C)c(S(=O)(=O)N2CCC(OCC(=O)NCCC3CCC(C(c4cccc(F)c4)N(C)C)CC3)CC2)c(C)c1C (stereo not drawn) [Example 232] | 98 | 5 |
